What was measured:
[1] = tested on: guinea pig detrusor strips; test: second in vitro test: relaxation of guinea pig bladder detrusor strips contracted with 80 mM KCl; assay type: cell-based, guinea pigs; settings: for potency in the second test compared with the first test: 80 mM KCl (second test) versus 15 mM KCl (first test)
Method: This second in vitro test is similar to the one described above with regard to tissue preparation and data acquisition. However, the following exceptions are noted. In this second test, the contraction of the detrusor strips during priming and after the equilibration period is achieved with 80 mM instead of 15 mM KCl (total concentration in the bath).
Typical calcium channel blockers like nifedipine, nimodipine, isradipine, and verapamil are able to relax and reduce the myogenic activity of guinea pig detrusor strips in both tests by virtue of their blocking action on calcium channels.

[2] = tested on: guinea pig detrusor strips; test: first in vitro test: relaxation of guinea pig bladder detrusor strips contracted with 15 mM KCl; assay type: cell-based, guinea pigs; settings: Cavia porcellus
Text: The actions of the compound as a smooth muscle relaxant useful as a therapeutic agent for the treatment of urinary incontinence through its action to open potassium channels and hyperpolarize the membrane potential in the bladder detrusor smooth muscle can be shown using suitably designed in vitro tests, such as the one described following. […] "IC50" is a well understood term and means the concentration of test compound which causes a 50% decrease in the in vitro contraction of the bladder tissue described in the following test.
Hale albino Hartley guinea pigs (450-500g) are sacrificed by carbon dioxide induced asphyxiation and quickly exsanguinated. The lower abdominal cavity is opened and the urinary bladder isolated. The bladder is cleaned of surrounding connective and adipose tissue, and the portion above the ureteral orifices is removed and washed in Krebs-Henseleit buffer solution of the following composition (in mH): NaCl 118.0, KCl 4.7, […] 1.2, KH2PO4 1.2, CaCl2 2.5, NaHCO3 25.0 and d-glucose 11.1. The solution is warmed to 37°C and gassed with 95% O2 and 5% CO2. […]
When the tissue relaxes to a steady state after the final washing, 15 mM KCl is again applied. […] The effect of the compound at each dose is expressed as % of the maximum inhibitory response, which is further normalized with respect to the corresponding effect of the compound vehicle control. […]

urinary incontinence = settings: preliminary clinical trial; Nurse et al., British Journal of Urology (1991), 68, 27-31; cited from earlier work
intestinal smooth muscle = settings: Vitolinya et al, Khim.-Farm. Zh., 15(1), 39-42, 1981; cited from earlier work
bladder = test: in vivo test in conscious catheterized rats: interval between bladder contractions, heart rate and MAP after oral dosing; set-up: species or system Wistar rats; settings: dosed orally, 3 mg/kg
Method: Hale Wistar rats (400 - 500 g) are anesthetized with 50 mg/kg Nembutal, i.p. For each rat, the abdominal region and the front and back of the neck are shaved and povidone-iodine is applied to the skin. For carotid catheterization, the left carotid artery is exposed via a small ventral cervical incision. The exposed area is flushed with a 2% lidocaine HCl solution to relax the vessel. The catheter, filled with 0.9% saline, is introduced approximately 2.4 cm into the artery so that its tip resided in the aortic arch. The distal end of the catheter is exteriorized at the nape of the neck, filled with heparin (1000 units/ml) and heat sealed. For bladder catheterization, the bladder is exposed through a midline abdominal incision. […]
The rats are weighed, orally sham-dosed (dosing needle introduced, but no fluid expelled), and transvesical saline infusion (.18 ml/min) is begun and continued throughout the experiment. Variations in blood pressure, heart rate, intravesical pressure and urine output are recorded on either a Grass Polygraph or a Gould TA4000 recording system. […] At this point, a basal level of each experimental parameter is recorded and the rats are administered by oral gavage the appropriate dose of compound (in a 75% PEG 400 - saline vehicle) in concentrations such that the volume is 1 ml/kg body weight. […]

With COc1ccc(Cc2nccc3cc(OC)c(OC)cc23)cc1OC [papaverine] as the compound, how does the “sustained tension after high KCl stimulation” value ([1]; 80 mM KCl, 300 µM) read?
Its value is “totally abolished”.

Which IC50 ([2]; first test) does the source give for CC1(C)Oc2ccc(C#N)cc2C(N2CCCC2=O)C1O (centres unmarked) [cromakalim] here?
Its IC50 is 0.6 to 0.9 µM.

And the relaxant activity ([1]; second test, 80 mM KCl, at concentrations as high as 30 µM)?
Its relaxant activity is “insignificant relaxant activity”.

And the “treatment of urinary incontinence” value (urinary incontinence)?
Its value is “effective”.

Which “effect on the cardiovascular system” value (intestinal smooth muscle) does the source give for CC1=C(C#N)C(c2ccccc2)C2=C(CC(C)(C)CC2=O)N1 (centres unmarked) [3-Cyano-4-phenyl-2,7,7-trimethyl-4,6,7,8-tetrahydro-5(1H)-quinolone] here?
Its value is “hypotensive properties”.

And the “spasmogenic effect of acetylcholine and barium chloride on intestinal smooth muscle” value (intestinal smooth muscle)?
The value was “capable of blocking the spasmogenic effect”.

For COc1ccc(CCN(C)CCCC(C#N)(c2ccc(OC)c(OC)c2)C(C)C)cc1OC (centres unmarked) [verapamil], which “potency in the second test compared with the first test” value [1] is on record?
Its value is “more potent in the second test”.

With COC(=O)C1=C(C)NC(C)=C(C(=O)OC(C)C)C1c1cccc2nonc12 (centres unmarked) [isradipine] as the compound, how does the “potency in the second test compared with the first test” value [1] read?
The value was “more potent in the second test”.

Which results are given for N#Cc1cccc([C@@H]2C=C(C(F)(F)F)NC3=C2C(=O)CCC3)c1 [The compound, (S)-(-)-4-(3-Cyanophenyl)-2-trifluoromethyl-4,6,7,8-tetrahydro-5(1H)-quinolone]?
IC50 ([2]; concentration causing a 50% decrease in the in vitro contraction of the bladder tissue): 4.2 µM; IC50 ([1]; Cavia porcellus, second test, 80 mM KCl): 41.1 µM; activity and selectivity for the bladder (bladder): active and selective for the bladder without significant cardiovascular effects

From patent publication EP0755382B1, “QUINOLONE DERIVATIVE FOR TREATMENT OF URINARY INCONTINENCE” (AstraZeneca AB, priority 1994, dated 1995)
